Experimental data from patent publication US9724329B2, “Stimulating immune response” (Peter MacCallum Cancer Institute, priority 2010, dated 2017).
Entries after “also recorded” stand apart in the source; their conditions may differ.

Assays:
transplanted Vk*MYC MM = test: Transplanted Vk*MYC myeloma model in mice: survival, paraproteinaemia (M-spike), serum immunoglobulin; assay type: in vivo, mouse; conditions: for efficacy against Vk*MYC MM in vivo (progression): FIG. 8d, lenalidomide 100 mg/kg, NMP, saline control
Protocol: Sublethally (6Gy) irradiated C57BL/6 mice were injected with 1×10e5 Vk*myc splenocytes derived from myelomatous mice by intravenous injection. Recipient mice were monitored by serum protein electophoresis for development of monoclonal paraproteinaemia (M-spike). The monoclonal paraprotein is a sensitive and specific marker of myeloma burden, as this protein is only produced by myeloma cells. Paraprotein estimation is a standard clinical parameter by which myeloma is monitored in human patients. Once detected, M-spikes were quantitated by densitometry (expressed as % of total serum protein). […] Mice were monitored by weekly M-spike quantification and for clinically apparent disease. Mice developing distress due to disease progression (e.g. hind limb paralysis, splenic rupture) were euthanased.
All mouse experiments were carried out in accordance with ethical guidelines determined by the Peter Mac Animal Experimental Ethics Committee. For in vivo assessment of NMP efficacy, treatment studies were performed on mice bearing transplanted Vk*MYC myeloma^2. […] To exclude the potential for adoptive transfer of immune cells with grafts into Rag2^−/−cγ^−/− mice and matched C57BL/6 recipients (FIG. 8f), freshly sorted Vk*MYC MM cells (40,000 per mouse) were used for this experiment. The onset of transplanted disease was confirmed by serum protein electrophoresis; those mice manifesting M-protein >2% of total serum protein (FIG. 8a) or >5% (remaining figures) were selected for treatment.
All dosing was performed by oral gavage using freshly prepared drug solutions or suspensions. Mice were dosed with NMP according to standard practice for drug administration using NMP/PEG as a vehicle^1. NMP (Sigma Aldrich, NSW, AUS) was diluted 1 in 10 v/v (FIG. 8a) or 1 in 5 v/v (remaining figures) in PEG300 (Sigma Aldrich, NSW, AUS) and administered by oral gavage to a final volume of 1 uL NMP per gram mouse weight.
BEZ235 was kindly provided by Novartis. According to Novartis' recommendations, BEZ235 was dissolved in NMP by heating briefly to 60° C. and further diluting 1 in 10 v/v in PEG300. Alternatively BEZ235 was suspended in 0.5% methylcellulose (MC) solution and mixed thoroughly prior to administration.
Lenalidomide was kindly provided by Celgene. Lenalidomide was suspended in 0.9% saline solution immediately prior to oral gavage at a dose of 100 mg/kg.
Treatment was continued daily for the first month, then weekdays only for the remainder of the indicated treatment period. Mice were culled with the development of features of overt myeloma, including permanent hind-limb paralysis and disseminated extramedullary disease.
Freshly obtained mouse serum was analyzed for paraproteinemia on the Sebia Hydrasys® semi-automated agarose gel electrophoresis system (Sebia, Norcross, Ga., USA). Serum M-spike densitometry quantification was performed using Phoresis software (release 4.7.2, Sebia) by a biochemist blinded to the nature of group allocation. M-spike results are expressed as a percentage of total serum protein.
For correlative quantitative immunoglobulin estimates, thawed aliquots of serum were batched for sandwich enzyme-linked immunosorbent assay (ELISA) using Igλ or IgK capture antibodies (Southern Biotech, AL, USA) and biotin/streptavidin detection by horseradish peroxidase/tetramethylbenzidine dihydrochloride substrate standardized against IgMK/IgMl isotype controls (Biolegend, CA, USA). ELISA plates were read using a VersaMax™ microplate reader and analyzed by SoftMax Pro software v 5.4 (Molecular Devices, CA, USA).

[1] = system: K562 cells (natural killer (NK) only sensitive cell line); test: NK-cell cytotoxicity: drug-treated PBMC as effectors in chromium release assay; assay type: cell-based, human; conditions: for NK cell function / cytotoxicity (K562 lysis): 10 uM, PBMC cultured 3 days, versus untreated
Protocol: (§1) FIG. 10. […] (b) The anti-inflammatory potential of NMP was assessed using LPS-treated CD14+ monocytes that were isolated from healthy donor PBMC. Monocytes were treated with 10 uM NMP or lenalidomide (LEN) and 1 ug/mL LPS for 18 hr or left untreated (Unt), then supernatants were analyzed via cytokine bead array for TNFα and IL-6. (c) The polarizing effect of NMP on cytokine production from PBMC was assessed from supernatants collected after 3d drug treatment. Levels of IL-2, IL-4 and IL-10 were analyzed by cytokine bead array. (d) NK-cell cytotoxicity was assessed by culturing healthy donor PBMC in the presence of 10 uM NMP, 10 uM lenalidomide, or as media alone (Unt). Cells harvested after 3d were washed and used as effectors in chromium release assays against the NK-only sensitive cell line, K562 at an effector ratio of 50:1. […] Data are presented as mean+/−SEM. NS, not statistically significant. (p≧0.05), *p<0.05
Healthy donor peripheral blood mononuclear cells (PBMC) were cultured for 3 days in RPMI-1640 and 10% FCS in the presence of 10 uM NMP, 10 uM Len (positive control) or no drugs. After 3 days the cells were harvested and used as effectors in a standard 4 hr chromium release assay, using K562 as targets (natural killer (NK) only sensitive cell line) (n=3).
BEZ235 and lenalidomide were dissolved in dimethylsulfoxide (DMSO) as 10 mM stock solutions and further diluted in media to final concentrations as specified in figure legends. The final concentration of DMSO was not greater than 0.1% v/v in any assay.

[2] = system: peripheral blood mononuclear cells (PBMC); test: Cytokine production of PBMC (cytokine bead array); assay type: cell-based, human; conditions: for cytokine secretion profile (Th): FIG. 10c, 3d drug treatment
Protocol: PBMC were cultured for 3 days in RPMI-1640 and 10% FCS in the presence of 10 uM NMP, 10 uM Len or no drugs. After 3 days, supernatants were collected and a cytokine bead array performed via the Luminex instrument to analyze changes in IL-2, IL-4 and IL-10 production (n=3).
(§2) Supernatants from cultured cells or serum from VK*MYC mice were used to assess the level of individual cytokines (as specified in the methods and results section) via the Luminex cytokine bead array system. The assay was conducted according to the manufacturer instructions. Briefly, pre-mixed beads were added to 25 uL of undiluted supernatant/serum, followed by the addition of detection antibodies and streptavidin in 96 well filtered-membrane plates. The plates were run on the Luminex 200 instrument and data analysed with the xPONENT software.

PBMC [3] = test: Immune cell subset composition of cultured PBMC; assay type: cell-based, human; conditions: 10 uM, 3 days
Protocol: PBMC were cultured in RPMI-1640 and 10% FCS for 3 days in the presence of either 10 uM NMP, 10 uM Len or no drugs. At day 3 the cells were harvested and stained for T cell markers (CD4 and CD8), NK markers (CD3−, CD56) and regulatory T cells (CD3, CD4, CD25, CD127low). For controls, day 0 PBMC were stained to assess changes in cellular subsets after 3 days (n=3).

CD14+ monocytes = test: Inflammatory cytokine secretion by LPS-treated CD14+ monocytes; assay type: cell-based, human; conditions: 10 uM; for IL-6 secretion / TNFα secretion: FIG. 10b, 1 ug/mL LPS, 18 hr
Protocol: as §1
CD14+ monocytes were sorted via the Dynal bead kit from PBMC. The cells were then treated with LPS to induce cytokine production, and cultured overnight in the presence of 10 uM NMP, 10 uM Len or no drugs. As background controls, non LPS stimulated monocytes were used. The supernatants were harvested and IL-1beta, GM-CSF, IL-6 and TNF-alpha analyzed via the Luminex beady array assay (n=3).
as §2

U266 cells = test: Expression of NKG2D and DNAM-1 ligands on myeloma cells (flow cytometry); assay type: cell-based, human; conditions: 10 uM, 48 hrs; FIG. 10f
[4] = system: LPS induced inflammation and shock; test: LPS challenge, serum cytokines in non-tumor bearing mice; assay type: in vivo, mouse; conditions: FIG. 8c; serum 4 hours after LPS; NMP 1 uL/g po, lenalidomide 2 x 100 mg/kg po
Protocol: as §2
For LPS challenges, non-tumor bearing C57BL/6 mice were administered LPS (E. Coli 0127:B8, gamma-irradiated; Sigma) 1 mg/30 g mouse weight by intraperitoneal injection. NMP (1 uL/g mouse weight in PEG, po) was administered 4 hours prior to LPS. Lenalidomide was administered in 2 doses of 100 mg/kg po 24 and 4 hours prior to LPS. Serum was obtained 4 hours after LPS challenge and analyzed for cytokine content by bead array.

[5] = system: PI3K/mTOR phosphorylation targets; test: PI3K/mTOR phosphorylation targets in vivo; conditions: in vivo (not shown)
PBMC [6] = test: Direct cytotoxicity, Annexin V and 7aad flow cytometry, PBMC; assay type: cell-based, human; conditions: NMP 0 uM, 1 uM, 10 uM, 100 uM or 10 mM, 48 hours
Protocol: (§3) PBMC and a myeloma cell line (U266) were cultured in RPMI-1640 with 10% FCS in the presence of NMP (0 uM, 1 uM, 10 uM, 100 uM or 10 mM) for 48 hours. The cells were stained with viability markers (Annexin V and 7aad) and analyzed on the flow cytometer (n=2).

myeloma cell line (U266) = test: Direct cytotoxicity, Annexin V and 7aad flow cytometry, U266; assay type: cell-based, human; conditions: NMP 0 uM, 1 uM, 10 uM, 100 uM or 10 mM, 48 hours
Protocol: as §3

Vk*MYC MM bearing mice = test: Serum cytokines in MM bearing mice; assay type: in vivo, mouse; conditions: FIG. 8e; one week of treatment, versus SAL
Protocol: as §2
For cytokine assessment in MM bearing mice, mice were treated daily for 7d with NMP or SAL, and serum collected 4 hours after the last dose.

[7] = bacterial and mammalian tests; cited from earlier work
[8] = rats, long-term exposure via inhalation or diet; cited from earlier work
[9] = rats, in the diet; cited from earlier work
[10] = in vivo; cited from earlier work

SMILES: Cn1c(=O)n(-c2ccc(C(C)(C)C#N)cc2)c2c3cc(-c4cnc5ccccc5c4)ccc3ncc21 [BEZ235, reference compound]
- median survival (transplanted Vk*MYC MM; FIG. 8a, BEZ235 25 mg/kg/d concurrent with NMP/PEG, n=6): 42.5 days
- effect on disease progression (transplanted Vk*MYC MM; FIG. 8a, BEZ235 in MC vehicle): minimal effect
- median survival (transplanted Vk*MYC MM; FIG. 8a, BEZ235 in MC vehicle, n=8): 47.5 days
- effect of concurrent administration on the therapeutic effect of NMP (transplanted Vk*MYC MM; FIG. 8a, BEZ235 with NMP/PEG): antagonized
- effect of co-treatment on NMP-induced NK-cell lysis ([1]; BEZ235 250 nM with NMP, FIG. 10e): inhibited; also recorded: downregulated

SMILES: Nc1cccc2c1CN(C1CCC(=O)NC1=O)C2=O (stereo not shown) [Lenalidomide, reference compound]
- efficacy against Vk*MYC MM in vivo (progression) (transplanted Vk*MYC MM): poor efficacy
- efficacy against Vk*MYC MM in vivo (progression) (transplanted Vk*MYC MM; listed as lenalidomide): minimal effects
- NK cell function / cytotoxicity (K562 lysis) [1]: enhanced
- IL-2 production ([2]; 10 uM, 3 days): without altering
- cytokine secretion profile (Th) [2]: away from a Th-2 profile
- proportions of immune cell subtypes (CD4, CD8, NK, regulatory T cells) (PBMC [3]): without altering
- IL-6 secretion (CD14+ monocytes): suppressed
- TNFα secretion (CD14+ monocytes): suppressed
- expression of NKG2D and DNAM-1 ligands (MIC-B, ULBP-1, ULBP-2 and CD155) (U266 cells): a property not shared
- IL-6 production following LPS challenge [4]: only NMP suppressed
- TNFα serum levels following LPS challenge [4]: suppressed
- effect on PI3K/mTOR phosphorylation targets [5]: did not detect any consistent effect

SMILES: CN1CCCC1=O [NMP, N-methylpyrrolidone]
- median survival (transplanted Vk*MYC MM; Example 1, FIG. 1, C57BL/6, NMP/PEG 1:10 v/v, 10 uL per gram, daily oral, 60 days, control 46 days): 60 days
- residual polyclonal Ig Lambda (L) (transplanted Vk*MYC MM; FIG. 8b): better maintained; also recorded: less suppressed
- clonally secreted Ig Kappa (K) (transplanted Vk*MYC MM; FIG. 8b, NMP/PEG versus PEG alone or PBS): Suppression
- NMP response in Rag2−/−cγ−/− knockout mice (transplanted Vk*MYC MM; FIG. 8f, immunodeficient mice lacking T, B or NK cells): No response
- NMP response in wild type C57BL/6 mice (transplanted Vk*MYC MM; FIG. 8f, same Vk*MYC clone): only observed in wild type C57BL/6
- efficacy against Vk*MYC MM in vivo (progression) (transplanted Vk*MYC MM): regressed
- NK cell function / cytotoxicity (K562 lysis) [1]: enhancement; also recorded: enhanced
- IL4 production ([2]; 10 uM, 3 days): inhibit
- IL10 production ([2]; 10 uM, 3 days): inhibit
- cytokine secretion profile (Th) [2]: away from a Th-2 profile
- direct cytotoxicity (AnnV+7aad+) (PBMC [6]): did not increase to any significant extent; also recorded: not cytotoxic
- direct cytotoxicity (AnnV+7aad+) (myeloma cell line (U266)): did not increase to any significant extent; also recorded: not cytotoxic
- proportions of immune cell subtypes (CD4, CD8, NK, regulatory T cells) (PBMC [3]): no significant alteration; also recorded: without altering
- secretion of the four inflammatory cytokines (IL-1beta, GM-CSF, IL-6, TNF-alpha) (CD14+ monocytes; Example 6, FIG. 7, overnight, relative to LPS only control): not shown to demonstrate a statistically significant effect
- IL-6 secretion (CD14+ monocytes): Statistically significant inhibition; also recorded: suppressed
- TNFα secretion (CD14+ monocytes): Statistically significant inhibition; also recorded: suppressed
- expression of NKG2D and DNAM-1 ligands (MIC-B, ULBP-1, ULBP-2 and CD155) (U266 cells): upregulated
- IL-6 production following LPS challenge [4]: suppressed
- TNFα serum levels following LPS challenge [4]: suppressed
- serum IL-6 (Vk*MYC MM bearing mice): reductions
- serum TNFα (Vk*MYC MM bearing mice): reductions
- effect on PI3K/mTOR phosphorylation targets [5]: did not detect any consistent effect
- genotoxicity [7]: no genotoxicity
- carcinogenic effects [8]: no carcinogenic effects
- no-effect level (for a decrease in pup body weight) [9]: 160 mg/kg/day
- oral LD50 [10]: 3600 to 7700 mg/kg
